From PubChem BioAssay (NCI)
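Interpolation was linear, between the two tested concentrations surrounding the appropriate level; five concentrations were tested over 48 hours in 96-well plates. Abbreviation: GI50, concentration required for 50% inhibition of growth. TGI marks complete inhibition of growth.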

Tests used:
Assay in all cases: DTP human tumour cell line panel, 48 h
A549 NSCLC = system: A549 NSCLC
PC-3 prostate = system: PC-3 prostate
ACHN renal = system: ACHN renal
CAKI-1 renal = system: CAKI-1 renal
NCI-H226 lung = system: NCI-H226 lung
DU-145 prostate = system: DU-145 prostate
NCI/ADR-RES ovarian = system: NCI/ADR-RES ovarian
SK-MEL-28 melanoma = system: SK-MEL-28 melanoma
LOX IMVI melanoma = system: LOX IMVI melanoma
HOP-92 NSCLC = system: HOP-92 NSCLC
MDA-MB-231 breast = system: MDA-MB-231 breast
SF-268 CNS = system: SF-268 CNS
U251 CNS = system: U251 CNS
SK-MEL-5 melanoma = system: SK-MEL-5 melanoma
NCI-H460 lung = system: NCI-H460 lung
NCI-H23 lung = system: NCI-H23 lung
786-0 renal = system: 786-0 renal
NCI-H522 lung = system: NCI-H522 lung
A498 renal = system: A498 renal
MOLT-4 leukemia = system: MOLT-4 leukemia
RPMI-8226 leukemia = system: RPMI-8226 leukemia
HL-60(TB) leukemia = system: HL-60(TB) leukemia
SF-295 CNS = system: SF-295 CNS
OVCAR-8 ovarian = system: OVCAR-8 ovarian
SK-OV-3 ovarian = system: SK-OV-3 ovarian
OVCAR-3 ovarian = system: OVCAR-3 ovarian
MCF7 breast = system: MCF7 breast
SNB-19 CNS = system: SNB-19 CNS
UACC-257 melanoma = system: UACC-257 melanoma
MDA-MB-435 = system: MDA-MB-435
OVCAR-4 ovarian = system: OVCAR-4 ovarian
K-562 leukemia = system: K-562 leukemia
SF-539 CNS = system: SF-539 CNS
KM12 colon = system: KM12 colon
SNB-75 CNS = system: SNB-75 CNS
HOP-62 NSCLC = system: HOP-62 NSCLC
SW-620 colon = system: SW-620 colon
HT29 colon = system: HT29 colon
SK-MEL-2 melanoma = system: SK-MEL-2 melanoma
SN12C renal = system: SN12C renal
IGROV1 ovarian = system: IGROV1 ovarian
SR leukemia = system: SR leukemia
UACC-62 melanoma = system: UACC-62 melanoma
HCT-116 colon = system: HCT-116 colon
M14 melanoma = system: M14 melanoma
RXF 393 renal = system: RXF 393 renal
HS 578T breast = system: HS 578T breast
UO-31 renal = system: UO-31 renal
EKVX NSCLC = system: EKVX NSCLC
HCT-15 colon = system: HCT-15 colon
TK-10 renal = system: TK-10 renal
OVCAR-5 ovarian = system: OVCAR-5 ovarian
COLO 205 colon = system: COLO 205 colon
BT-549 breast = system: BT-549 breast

CCOC(=O)c1c(C)n(Cc2ccccc2)c2c1cc1oc(=O)c(=O)n3cnc2c13
GI50 (A549 NSCLC): 13.6 µM
TGI (A549 NSCLC): 45.7 µM
GI50 (PC-3 prostate): 10.3 µM
TGI (PC-3 prostate): > 50 µM
GI50 (ACHN renal): 9.91 µM
TGI (ACHN renal): 39.9 µM
GI50 (CAKI-1 renal): 14.7 µM
TGI (CAKI-1 renal): 48.8 µM
GI50 (NCI-H226 lung): 20.3 µM
TGI (NCI-H226 lung): > 50 µM
GI50 (DU-145 prostate): 11.8 µM
TGI (DU-145 prostate): > 50 µM
GI50 (NCI/ADR-RES ovarian): 18.5 µM
TGI (NCI/ADR-RES ovarian): > 50 µM
GI50 (SK-MEL-28 melanoma): 40.4 µM
TGI (SK-MEL-28 melanoma): > 50 µM
GI50 (LOX IMVI melanoma): 8.74 µM
TGI (LOX IMVI melanoma): 22.3 µM
GI50 (HOP-92 NSCLC): 2.83 µM
TGI (HOP-92 NSCLC): 20.1 µM
GI50 (MDA-MB-231 breast): 13 µM
TGI (MDA-MB-231 breast): > 50 µM
GI50 (SF-268 CNS): 15.3 µM
TGI (SF-268 CNS): > 50 µM
GI50 (U251 CNS): 12 µM
TGI (U251 CNS): > 50 µM
GI50 (SK-MEL-5 melanoma): 10.4 µM
TGI (SK-MEL-5 melanoma): 26.7 µM
GI50 (NCI-H460 lung): 15.9 µM
TGI (NCI-H460 lung): > 50 µM
GI50 (NCI-H23 lung): 14.4 µM
TGI (NCI-H23 lung): > 50 µM
GI50 (786-0 renal): 13.7 µM
TGI (786-0 renal): > 50 µM
GI50 (NCI-H522 lung): > 50 µM
TGI (NCI-H522 lung): > 50 µM
GI50 (A498 renal): 11 µM
TGI (A498 renal): 49.8 µM
GI50 (MOLT-4 leukemia): 8.47 µM
TGI (MOLT-4 leukemia): > 50 µM
GI50 (RPMI-8226 leukemia): 1.86 µM
TGI (RPMI-8226 leukemia): 14.1 µM
GI50 (HL-60(TB) leukemia): 14.5 µM
TGI (HL-60(TB) leukemia): > 50 µM
GI50 (SF-295 CNS): 16.2 µM
TGI (SF-295 CNS): > 50 µM
GI50 (OVCAR-8 ovarian): 22.8 µM
TGI (OVCAR-8 ovarian): > 50 µM
GI50 (SK-OV-3 ovarian): > 50 µM
TGI (SK-OV-3 ovarian): > 50 µM
GI50 (OVCAR-3 ovarian): 12.3 µM
TGI (OVCAR-3 ovarian): 34.7 µM
GI50 (MCF7 breast): 17.7 µM
TGI (MCF7 breast): > 50 µM
GI50 (SNB-19 CNS): 42.4 µM
TGI (SNB-19 CNS): > 50 µM
GI50 (UACC-257 melanoma): 17 µM
TGI (UACC-257 melanoma): 48.3 µM
GI50 (MDA-MB-435): 10.7 µM
TGI (MDA-MB-435): 32.9 µM
GI50 (OVCAR-4 ovarian): 19.8 µM
TGI (OVCAR-4 ovarian): > 50 µM
GI50 (K-562 leukemia): 12.9 µM
TGI (K-562 leukemia): > 50 µM
GI50 (SF-539 CNS): 14.5 µM
TGI (SF-539 CNS): 37.8 µM
GI50 (KM12 colon): 19.2 µM
TGI (KM12 colon): > 50 µM
GI50 (SNB-75 CNS): 28.5 µM
TGI (SNB-75 CNS): > 50 µM
GI50 (HOP-62 NSCLC): 29.4 µM
TGI (HOP-62 NSCLC): > 50 µM
GI50 (SW-620 colon): 14.1 µM
TGI (SW-620 colon): 34.7 µM
GI50 (HT29 colon): 18.3 µM
TGI (HT29 colon): > 50 µM
GI50 (SK-MEL-2 melanoma): > 50 µM
TGI (SK-MEL-2 melanoma): > 50 µM
GI50 (SN12C renal): 10.4 µM
TGI (SN12C renal): 24.9 µM
GI50 (IGROV1 ovarian): 28.1 µM
TGI (IGROV1 ovarian): > 50 µM
GI50 (SR leukemia): 7.99 µM
TGI (SR leukemia): > 50 µM
GI50 (UACC-62 melanoma): 16.6 µM
TGI (UACC-62 melanoma): > 50 µM
GI50 (HCT-116 colon): 7.36 µM
TGI (HCT-116 colon): 15.3 µM
GI50 (M14 melanoma): 18.3 µM
TGI (M14 melanoma): > 50 µM
GI50 (RXF 393 renal): 16 µM
TGI (RXF 393 renal): > 50 µM
GI50 (HS 578T breast): 34.3 µM
TGI (HS 578T breast): > 50 µM
GI50 (UO-31 renal): 25.6 µM
TGI (UO-31 renal): > 50 µM
GI50 (EKVX NSCLC): 13 µM
TGI (EKVX NSCLC): 39.7 µM
GI50 (HCT-15 colon): 16.2 µM
TGI (HCT-15 colon): > 50 µM
GI50 (TK-10 renal): 15.7 µM
TGI (TK-10 renal): 42.6 µM
GI50 (OVCAR-5 ovarian): 36.9 µM
TGI (OVCAR-5 ovarian): > 50 µM
GI50 (COLO 205 colon): 12.8 µM
TGI (COLO 205 colon): 30.6 µM
GI50 (BT-549 breast): 16.2 µM
TGI (BT-549 breast): 34.2 µM
